# Values quoted from earlier work as cited in PubChem BioAssay AID1259409 (Chemical Carcinogenesis Research Information System (CCRIS), 2018).
# System: rodent chemically induced tumor inhibition, incidence and multiplicity
# Test: CCRIS tumor inhibitor studies
smiles,measurement,setting,value
CCc1cccc2c3c([nH]c12)C(CC)(CC(=O)O)OCC3 (configuration not stated),"tumour outcome (control, treated, inhibition, significance)","Carcinogen: N-NITROSOBIS(2-HYDROXYPROPYL)AMINE, 53609-64-6, Dose [Inhibitor]: 0, 0.015% IN DIET FOR 8 WK BEGINNING POST CARCINOGEN TREATMENT (STUDY DURATION: 20 WK), Route [Inhibitor]: ORAL, Species: RAT, Strain/Sex: WISTAR/MALE, Target Tissue: Type of Lesion: LUNG: ADENOCARCINOMA, Dose [Carcinogen]: 2,000 PPM IN DRINKING WATER FOR 12 WK, Promoter: NONE","60%, 46%, 23%, not calculated"
same,"tumour outcome (control, treated, inhibition, significance)","Carcinogen: N-NITROSOBIS(2-HYDROXYPROPYL)AMINE, 53609-64-6, Dose [Inhibitor]: 0, 0.015% IN DIET FOR 8 WK BEGINNING POST CARCINOGEN TREATMENT (STUDY DURATION: 20 WK), Route [Inhibitor]: ORAL, Species: RAT, Strain/Sex: WISTAR/MALE, Target Tissue: Type of Lesion: LUNG: SQUAMOUS CELL CARCINOMA, Dose [Carcinogen]: 2,000 PPM IN DRINKING WATER FOR 12 WK, Promoter: NONE","20%, 0%, 100%, not calculated"
same,"tumour outcome (control, treated, inhibition, significance)","Carcinogen: N-NITROSOBIS(2-OXOPROPYL)AMINE [60599-38-4], Dose [Inhibitor]: 10 MG/KG BW ORALLY 3X A WEEK FOR 18 WK (STUDY DURATION: 22 WK), Route [Inhibitor]: ORAL, Species: HAMSTER, Strain/Sex: SYRIAN GOLDEN/FEMALE WITH BILIOENTEROSTOMY, Target Tissue: Type of Lesion: BILE DUCT: ADENOMA, Dose [Carcinogen]: 10 MG/KG BW EVERY 2 WK FOR 18 WK (STUDY DURATION: 22 WK)","15/17 (88%), 11/18 (61%), 31%, not significant"
same,"tumour outcome (control, treated, inhibition, significance)","Carcinogen: N-NITROSOBIS(2-OXOPROPYL)AMINE [60599-38-4], Dose [Inhibitor]: 10 MG/KG BW ORALLY 3X A WEEK FOR 18 WK (STUDY DURATION: 22 WK), Route [Inhibitor]: ORAL, Species: HAMSTER, Strain/Sex: SYRIAN GOLDEN/FEMALE WITH BILIOENTEROSTOMY, Target Tissue: Type of Lesion: BILE DUCT: CARCINOMA, Dose [Carcinogen]: 10 MG/KG BW EVERY 2 WK FOR 18 WK (STUDY DURATION: 22 WK)","15/17 (88%), 6/18 (33%), 63%, p< 0.01"
CC(O)C(=O)O (configuration not stated),outcome,"Carcinogen: 1,2-DIMETHYLHYDRAZINE, 540-73-8, Dose [Inhibitor]: 0, 3.2 G/L IN DRINKING WATER FOR DURATION OF STUDY (STUDY DURATION: 34 WK), Route [Inhibitor]: ORAL, Species: RAT, Strain/Sex: SPRAGUE-DAWLEY/MALE, FEMALE, Target Tissue: Type of Lesion: COLON: TUMOR, Dose [Carcinogen]: 21 MG/KG 1/WK FOR 18 WK, Promoter: NONE USED","28/29 (97%), 18/28 (64%), not calculated"
C=C(C)C1CC=C(C)C(O)C1 (configuration not stated),"tumour outcome (control, treated, inhibition, significance)","Carcinogen: 7,12-DIMETHYLBENZ[A]ANTHRACENE, 57-97-6, Dose [Inhibitor]: 0, 1% IN DIET FOR 3 WK BEGINNING 2 WK PRIOR TO CARCINOGEN DOSE (STUDY DURATION: 20 WK), Route [Inhibitor]: ORAL, Species: RAT, Strain/Sex: WISTAR/FEMALE, Target Tissue: Type of Lesion: MAMMARY GLAND: CARCINOMA, Dose [Carcinogen]: 50 MG/KG IN SESAME OIL ONCE, Promoter: NONE USED","98%, 92%, 6%, not significant"
COC1=CC(=O)[C@]2(C=C1OC)OC[C@H]1Oc3c(ccc4c3C=CC(C)(C)O4)C(=O)[C@H]12,"tumour outcome (control, treated, inhibition, significance)","Carcinogen: 7,12-DIMETHYLBENZ[A]ANTHRACENE, 57-97-6, Dose [Inhibitor]: 0, 85 NMOL 2/WK BEGINNING 1 WK POST CARCINOGEN DOSE (STUDY DURATION: 20 WK), Route [Inhibitor]: DERMAL, Species: MOUSE, Strain/Sex: ICR/FEMALE, Target Tissue: Type of Lesion: SKIN: PAPILLOMA, Dose [Carcinogen]: 390 NMOL, Promoter: 12-O-TETRADECANOYLPHORBOL-13-ACETATE, 16561-29-8","100%, 20%, 80%, not calculated"
